Measurements from patent US6610738B2, “N-disubstituted carbamoyloxy flavones” (priority 2000, dated 2003).
Where two headings read alike, the source gives them in different places.

Columns and labels:
acetylcholine esterase [1] = target: acetylcholine esterase (Homo sapiens, UniProt P22303); assay: biochemical
acetylcholine esterase [2] = assay: AChE inhibition ex vivo (Table II); assay type: in vivo
[3] = time not given, read-out: AchE inhibition IC50
[4] = read-out: AchE inhibition IC50 (5′)
[5] = read-out: AchE inhibition IC50 (30′)

Chain of acetylcholine esterase (Homo sapiens, UniProt P22303) (P22303 32-614): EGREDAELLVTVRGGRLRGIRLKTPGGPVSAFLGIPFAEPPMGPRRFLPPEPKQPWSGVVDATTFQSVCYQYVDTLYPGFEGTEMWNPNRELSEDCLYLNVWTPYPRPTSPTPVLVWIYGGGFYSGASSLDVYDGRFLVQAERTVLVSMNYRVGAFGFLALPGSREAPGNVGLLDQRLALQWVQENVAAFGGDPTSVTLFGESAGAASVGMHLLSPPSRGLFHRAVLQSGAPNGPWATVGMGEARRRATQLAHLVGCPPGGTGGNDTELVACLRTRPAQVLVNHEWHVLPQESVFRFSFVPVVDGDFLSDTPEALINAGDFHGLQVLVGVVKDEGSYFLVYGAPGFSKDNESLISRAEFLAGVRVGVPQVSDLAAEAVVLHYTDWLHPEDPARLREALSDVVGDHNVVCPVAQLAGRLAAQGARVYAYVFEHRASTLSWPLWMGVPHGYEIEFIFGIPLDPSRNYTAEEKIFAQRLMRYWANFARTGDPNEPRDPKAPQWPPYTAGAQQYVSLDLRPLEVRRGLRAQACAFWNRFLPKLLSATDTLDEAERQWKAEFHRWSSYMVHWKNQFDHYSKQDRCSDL

melting point [°C]	Compound	IC50 (acetylcholine esterase [1]; [3]) [µM]	further results
167 to 168	CN(C)C(=O)Oc1cccc(-c2cc(=O)c3cc(N(C)C)ccc3o2)c1	–	–
166 to 168	CCOc1ccc2c(=O)cc(-c3ccccc3OC(=O)N(C)C)oc2c1	–	–
91 to 93.5	CCOc1ccc2c(=O)cc(-c3ccccc3OC(=O)N(C)CC)oc2c1	–	–
133.5 to 135	COc1ccccc1-c1cc(=O)c2ccc(OC(=O)N(C)C)cc2o1	–	–
145.5 to 147	CN(C)C(=O)Oc1ccc2c(=O)cc(-c3ccccc3OC(=O)N(C)C)oc2c1	–	–
157 to 159	CN(C)C(=O)Oc1cccc(-c2cc(=O)c3cc(N)ccc3o2)c1	–	–
–	CN(C)C(=O)Oc1ccccc1-c1cc(=O)c2ccccc2o1	2.65	AchE inhibition Ex vivo (acetylcholine esterase [2]; at 40 μM/kg): 29% at 40 μM/kg
–	CN(C)C(=O)Oc1cccc(-c2cc(=O)c3ccccc3o2)c1	1.4	AchE inhibition Ex vivo (acetylcholine esterase [2]; at 40 μM/kg): 42% at 40 μM/kg
–	CCN(C)C(=O)Oc1cccc(-c2cc(=O)c3ccccc3o2)c1	41	–
–	CCN(C)C(=O)Oc1ccccc1-c1cc(=O)c2ccccc2o1	3.5	AchE inhibition Ex vivo (acetylcholine esterase [2]; at 50 μM/kg): 14% at 50 μM/kg
–	C[N+](C)(C)c1ccc2oc(-c3ccccc3)cc(=O)c2c1	–	IC50 (acetylcholine esterase [1]; [4]): 10.5 µM; IC50 (acetylcholine esterase [1]; [5]): 48 µM
–	COc1ccc(-c2cc(=O)c3cc([N+](C)(C)C)ccc3o2)cc1	–	IC50 (acetylcholine esterase [1]; [4]): 5.5 µM; IC50 (acetylcholine esterase [1]; [5]): 6 µM
–	CN(C)CCOc1cccc(-c2cc(=O)c3ccccc3o2)c1	–	IC50 (acetylcholine esterase [1]; [4]): 10 µM; IC50 (acetylcholine esterase [1]; [5]): 5.8 µM
